Measured values published in patent publication US20250019367A1, “Methods for Separation of Enantiomers” (Mirati Therapeutics, Inc., priority 2021, published 2025).

Experiment: Solid form stability versus water activity
Type: physicochemical
Conditions: IPA-water mixtures, water activity αw
Description: In certain such embodiments, the reacting step (c) occurs in an iso-propyl alcohol (IPA, i-PrOH) solution, or isopropyl alcohol and water solution. […] mixtures of IPA-water (e.g. 90/10 v/v) are preferred to maximize recovery and control API form. […] In certain embodiments, the step (c) solution is optionally seeded with M-enantiomer free base Compound 2.

Q: Which “water activity at which the form is the most stable” value does the source give for `Cn1ncc(-c2ccc3c(=O)[nH]nc(CN)c3c2)c1-c1c(F)c(Cl)cc(OC2CC2)c1C#N` [Free Base Type A, (2M)-2-(4-(4-(aminomethyl)-1-oxo-1,2-dihydrophthalazin-6-yl)-1-methyl-1H-pyrazol-5-yl)-4-chloro-6-cyclopropoxy-3-fluorobenzonitrile] here?
A: Its value is no less than 0.13.
